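Step 1: Grow cells in 96-well plates. Step 2: Expose to compound for 48 hours at 5 concentrations. Step 3: Interpolate endpoints linearly; if unreached, use highest concentration. At the TGI there is no net growth.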
Columns and labels:
Experiment in all cases: NCI tumour cell line growth inhibition, 48 h
SK-MEL-28 melanoma = test system: SK-MEL-28 melanoma
OVCAR-3 ovarian = test system: OVCAR-3 ovarian
SNB-19 CNS = test system: SNB-19 CNS
K-562 leukemia = test system: K-562 leukemia
SF-539 CNS = test system: SF-539 CNS
LOX IMVI melanoma = test system: LOX IMVI melanoma
RXF 393 renal = test system: RXF 393 renal
DU-145 prostate = test system: DU-145 prostate
HS 578T breast = test system: HS 578T breast
U251 CNS = test system: U251 CNS

Row | SMILES | TGI (SK-MEL-28 melanoma) | TGI (OVCAR-3 ovarian) | TGI (SNB-19 CNS) | TGI (K-562 leukemia) | TGI (SF-539 CNS) | TGI (LOX IMVI melanoma) | TGI (RXF 393 renal) | TGI (DU-145 prostate) | TGI (HS 578T breast) | TGI (U251 CNS)
1 | COc1cc(CNc2nc3c(NC(C)=O)cc(C(F)(F)F)cc3nc2-c2ccccc2)cc(OC)c1OC | > 100 µM | > 100 µM | > 100 µM | > 100 µM | > 100 µM | > 100 µM | > 100 µM |  |  | 
2 | CCN(CCCl)c1cc(CN(C)C)cc(NC(=O)c2ccc(C(=O)Nc3cccc(N(CCCl)NN)c3)cc2)c1 | 0.505 µM |  |  | 0.199 µM | 0.56 µM | 0.034 µM | 0.142 µM | 8.66 µM | 0.0711 µM | 
3 | CN(Cc1ccccc1)C(=S)S | > 100 µM | > 100 µM |  | > 100 µM |  | > 100 µM | > 100 µM | > 100 µM | > 100 µM | > 100 µM
4 | CCOC(=O)CCC(C(=O)OCC)n1nnc2cc(Nc3c(C)[n+]([O-])c4cc(Cl)ccc4[n+]3[O-])ccc21 (configuration not stated) |  | > 100 µM | > 100 µM | > 100 µM | > 100 µM | > 100 µM | > 100 µM | > 100 µM | > 100 µM | > 100 µM
5 | NCC1OC(OC2C(N)CC(N)C(O)C2OC2OC(CO)C(O)C2O)C(N)C(O)C1O (configuration not stated) | > 100 µM | > 100 µM | > 100 µM | > 100 µM | > 100 µM | > 100 µM | > 50 µM | > 100 µM | > 100 µM | > 100 µM
6 | N=C(N)c1ccc(N=Nc2c(O)c(C(=O)Nc3ccccc3)cc3ccccc23)cc1 | > 100 µM | > 53.3 µM | 51.5 µM | > 80.4 µM | 43 µM |  | > 68.4 µM | > 100 µM | > 85.5 µM | > 63.1 µM
7 | CC1CC[C@@]2(OC1)OC1C[C@H]3[C@@H]4CC=C5C[C@@H](OC6OC(CO)C(OC7OC(CO)C(O)C(O)C7O)C(O)C6OC6OC(C)C(O)C(O)C6O)CC[C@]5(C)[C@H]4CC[C@]3(C)C1[C@@H]2C (some centres not stated) | 1.02 µM | 1.7 µM | 3.92 µM | 1.09 µM | 0.88 µM | 0.852 µM | 0.857 µM | 0.919 µM | 1.57 µM | 0.923 µM
8 | CSC1=C(C)C(/C=N/Nc2ccc([N+](=O)[O-])cc2)=C(C)N(c2ccccc2)S1(=O)=O | > 100 µM | > 100 µM | > 100 µM | > 100 µM | > 100 µM | > 100 µM | > 100 µM | > 100 µM |  | > 100 µM
9 | O=c1c2ccccc2n2nnc3ccc(NCCNCCO)c1c32 | 10.9 µM | 5.81 µM | 17.7 µM | 21.7 µM | 14.6 µM | 2.6 µM | 7.24 µM | 2.7 µM | 6.36 µM | 6.73 µM
10 | COC(=O)c1sc2c(Cl)c(Cl)sc2c1Cl | > 100 µM | > 100 µM | > 100 µM | > 100 µM | > 100 µM | > 100 µM | > 100 µM | > 100 µM | > 100 µM | > 100 µM
11 | C/C(=C\C(=O)O)C(=O)N(C)c1ccccc1I | > 100 µM | > 100 µM | > 100 µM | > 100 µM |  | > 100 µM | > 100 µM | > 100 µM | > 100 µM | > 100 µM
12 | COC(=O)[C@]1(c2cc3ccccc3[nH]2)CC2CNC1C1OC(C)(C)OC21 (some centres not stated) | > 100 µM | > 100 µM | > 100 µM | > 100 µM | > 100 µM | > 100 µM | > 100 µM | > 100 µM |  | > 100 µM
13 | CN(CC(=O)O)c1ncc2c(n1)-c1ccccc1CC2 | > 100 µM | > 100 µM | > 100 µM | > 100 µM | > 100 µM | > 100 µM | > 100 µM | > 100 µM | > 100 µM | > 100 µM
14 | CCOC(=O)NC(Nc1ccc(C(=O)O)cc1)(C(F)(F)F)C(F)(F)F | > 100 µM | > 100 µM | > 100 µM | > 100 µM | > 100 µM | > 100 µM | > 100 µM | > 100 µM | > 100 µM | > 100 µM
15 | Cc1c(-c2ccccc2)oc(=O)c2ccccc12 | 37.3 µM | 41.8 µM | > 100 µM | > 100 µM | 36.2 µM | 40.4 µM | 37.7 µM | > 100 µM | 43.1 µM | 42.2 µM
16 | C=C(C)C1CCC2(C)C1CCC1(C)C2CCC2C3(C)C4OC(OC4=O)C(C)(C)C3CCC21C (configuration not stated) | > 100 µM | > 100 µM | > 100 µM | > 100 µM | > 100 µM | > 100 µM | > 100 µM | > 100 µM | > 100 µM | > 100 µM
17 | c1csc(-c2cc(-c3ccsc3)cs2)c1 | > 100 µM | > 100 µM |  | > 100 µM | > 100 µM | > 100 µM | > 100 µM | > 100 µM | > 100 µM | > 100 µM
18 | O=C(Nc1nnc(-c2ccccc2)o1)C(SC(=S)N1CCCC1)c1ccccc1 (configuration not stated) | > 100 µM | 74.4 µM | > 100 µM | > 100 µM | 91.8 µM | 41.4 µM | > 100 µM | > 100 µM | > 100 µM | > 100 µM
19 | Cc1cc(C)c(C2=NO[C@@H]3[C@H]2C(=O)C=C2N(Cc4ccccc4)CCO[C@@]23O)c(C)c1 | > 100 µM | > 100 µM | > 100 µM | > 100 µM | > 100 µM | > 100 µM | > 100 µM |  |  | > 100 µM
20 | COc1cc(C2C3=C(NC(=O)C2C#N)c2ccc4ccccc4c2OCC3)cc(OC)c1OC (configuration not stated) | > 100 µM | > 100 µM | > 100 µM | > 100 µM | 42.3 µM |  | 32.9 µM | > 100 µM | 68.1 µM | 30.4 µM
21 | C=C(CCC(=O)N(CCc1c[nH]c2ccccc12)C(=O)c1ccccc1CSCC)C(=O)OC | > 100 µM | > 100 µM | > 100 µM | > 100 µM | > 100 µM | > 100 µM | > 100 µM | > 100 µM | > 100 µM | > 100 µM
22 | CC1=NN(c2cc(Cl)c(S(=O)(=O)O)cc2Cl)C2(C1)C(Cl)C(=O)N2c1nc2ccccc2s1 (configuration not stated) | > 100 µM |  | > 100 µM | > 100 µM | > 100 µM | > 100 µM | > 100 µM | > 100 µM | > 100 µM | > 100 µM

Source: PubChem BioAssay (NCI)
